According to patent US20040147595A1, “Biofilm degrading or sloughing compositions and methods” (priority 2001, published 2004):

Experiments:
Assay type in all cases: cell-based, Pseudomonas aeruginosa
[1] = system: protein synthesis (araC-PBAD-gfp(ASV)); assay: araC-PBAD-gfp(ASV) expression in biofilm, protein synthesis control; settings: furanone 56 below 10 μg/ml, 0.2% L-arabinose; data not shown
Procedure: To determine if the furanone-mediated inhibition of green fluorescence is due to subtle non-specific effects on protein synthesis when the bacteria are growing in a biofilm, we examined expression of green fluorescence in cells harboring the araC-PBAD-gfp(ASV) cassette induced by suboptimal levels of L-arabinose is (0.2%). The cells became green fluorescent within 2 hours after induction.

[2] = system: las quorum sensing system (lasB-gfp(ASV) expression); assay: AHL and furanone bioassay, PlasB-gfp(ASV) Plac-lasR reporter in planktonic PAO-JP2
Procedure: AHL and furanone bioassay. Strains were grown exponentially in LB or ABt medium supplemented with 0.5% glucose at 30° C., shading at 250 rpm. At an optical density of approximately 0.8. the cultures were diluted and split into subcultures in glass culture flasks. AHLs and furanone 56 were added to appropriate concentrations and the cultures were further incubated at 30° C. under vigorous shaking. Culture samples were retrieved at various time intervals and green fluorescence was measured with a fluorometer (model RF-1501, Shimadzu, Tokyo, Japan) set at an excitation wavelength of 475 nm and emission wavelength of 515 nm. Relative fluorescence was calculated as green fluorescence normalized to 1 ml culture divided by the optical density (OD600 nm.
Initially, the lasB-gfp(ASV) translational fusion (OdDHL sensor) was thoroughly characterized with respect to its sensitivity and specificity. A culture of E. coli hosting the pMHLAS monitor plasmid was diluted and spilt into several subcultures which were then supplemented with AHLs at concentrations ranging from 0 to 1000 nM. […] When the pMHLAS based reporter system was hosted by PAO-JP2. the OdDHL concentration required for half-maximal activation of the lasB-gfp(ASV) fusion was 8 nM (data not shown). In single copy on the chromosome of PAO-JP2, the OdDHL concentration on required for half-maximal activation of lasB expression was approximately 250 nM (FIG. 2b). Green fluorescent cells were visible by epifluorescence microscopy at a minimal OdDHL concentration of 50 nM (FIG. 2c).
Noteworthy, the inhibitory effect of furanone 56 was relieved at increased concentrations of OdDHL.

[3] = system: lasB-gfp(ASV) reporter in P. aeruginosa PAO-JP2 biofilm; assay: OdDHL-mediated signalling in PAO-JP2 flowcell biofilm, lasB-gfp(ASV) reporter, CSLM
Procedure: P. aeruginosa biofilms. Biofilms were grown at 30° C. in three-dimensional flow cells (Christensen et al., 1999) with individual channel dimensions of 0.3×4×40 mm supplied With ABt minimal medium supplemented with 2% LB. The flow system was assembled and prepared as described by Christensen et al. (1999). The substratum consisted of a microscope glass coverslip (Knittel 24×50 mm st1, Knittel Glaser, Braunschweig, Germany). Cultures for inoculation of the flow channels were prepared in the following way: P. aeruginosa strains were streaked on LB plates with the appropriate antibiotics and incubated for 24 h at 37° C. From each plate a single colony was used for inoculation of 10 ml ABt with 10% LB. The cultures were grown at, 30° C. for 18 h before they were diluted to an OD600 nm of 0.1 in sterile 0.9% NaCl and used for inoculation of the flow channels. Medium flow was kept at a constant rate of 3 mL/h, equivalent to a mean flow velocity of 0.7 mm/s, using a Watson-Marlow 205S peristaltic pump (Watson-Marlow, Falmouth, England). Biofilms were grown for 24 hours before being shifted to media containing AHL and furanone.
Scanning confocal laser microscopy (SCLM). Microscopic inspection and image acquisition were performed an a scanning confocal laser microscope (model TCS4D, Leica Lasertechnik GmbH, Heldelberg, Germany) equipped with a 63×/1.32-0.6 oil objective. The microscope was equipped with a motorized and programmable xy-stage, which was used for monitoring single colonies during the biofilm experiments. At the beginning of each online experiment, the microscope was programmed to track single randomly selected microcolonies; the sensitivity of photo multipliers and the laser intensity were adjusted and thereafter kept constant through out the duration of the experiments. Image scanning was carried out using the 488 nm and 568 nm lines of an Ar/Kr laser for detection of Gfp and Rfp, respectively. Visualization of captured images was performed using the IMARIS software package (Bitplane AG, Zúrich, Switzerland) running on a Silicon Graphics Indigo 2 workstation (Silicon Graphics, Mountain View, Calif. USA).
Inhibition of AHL-mediated signalling in P. aeruginosa biofilms. The lasB-gfp(ASV) reported was integrated into the chromosome of PAO-JP2 to ensure stable segregation and a constant gene dosage of the reported system. The strain was growth in flowcells for 24 hours in ABt-LB medium and a 10-15 μm thick biofilm developed. The media flow was subsequently switched to ABt-LB medium containing the appropriate AHL and furanone concentrations. The development of green fluorescence was monitored online by CSLM for 8 hours.

[4] = system: P. aeruginosa protein synthesis; assay: Constitutive Gfp-expression (pMH306) in PAO1, protein synthesis control; settings: PAO1 with pMH306, furanone 0 to 10 μ/ml; data not shown
Procedure: To determine if the furanone compound worked specifically on the las quorum sensor and not indirectly by disruption of primary metabolic functions, we followed growth as optical density of P. aeruginosa PAO1 in the presence of furanone 56. […] Further, we tested whether the furanone affected P. aeruginosa protein synthesis. The wild type P. aeruginosa PAO1 strain containing the consitutive Gfp-expression vector pMH306 was grown in the presence of furanone 56 at concentrations from 0 to 10 μ/ml. Gfp-expression (fluorescence/OD600 nm) was throughout the growth cycle unaffected by the presence of furanone compound (data not shown).

## O=C1C=C/C(=C/Br)O1 [furanone 56]
[1]
  effect on Gfp-expression: no effect on Gfp-expression
[2]; 1.25 μ/ml (7.1 μM) furanone, range of OdDHL concentrations
  effect on lasB-gfp(ASV) expression: inhibited lasB-gfp(ASV) expression at a wide range of OdDHL concentrations
[2]; any of the tested concentrations
  complete inhibition of lasB-gfp(ASV) expression: complete inhibition was not attained at any of the tested concentrations
[3]; 40 nM OdDHL and 2 μl/ml furanone 56, 8 hours
  induction of green fluorescence in biofilm: did not lead to induction of green fluorescence
[3]; 80 nM OdDHL and 2 μg/ml furanone 56
  induction of green fluorescence in biofilm: green fluorescence was induced
[3]; 80 nM OdDHL and 4 μg/ml furanone, data not shown
  induction of green fluorescence in biofilm: Induction of green fluorescence was established
[3]; 4 μg/ml alone, data not shown
  green fluorescence in biofilm: No green fluorescence was observed
[4]
  Gfp-expression (fluorescence/OD600 nm) throughout the growth cycle: unaffected
